{
  "source": "patent US20240382497A1",
  "about": "“PROPHYLACTIC OR THERAPEUTIC AGENT FOR HYPOXIC INJURY, ISCHAEMIA-REPERFUSION INJURY AND INFLAMMATION, CELL PROTECTION AGENT FOR TRANSPLANTATION, AND BIO-PRESERVATION AGENT” (priority 2018, published 2024)",
  "key": {"[1]": {"system": "Male C57/BL6N mice", "assay": "Body surface temperature on odor presentation (thermography)", "type": "in vivo, mouse", "conditions": "filter paper scented with 271 μmol odor, mean of 20 min, versus no odor", "description": "An influence of a thiazoline-related compound and an odor molecule that induces learned fear on the body surface temperature was analyzed. Male C57/BL6N mice (about 3 months old) were anesthetized with pentobarbital (50 mg/kg, i.p.) 2-3 days before the test, and the back hair was depilated with depilatory cream. On the day of testing, each mouse was placed in a test cage and, after acclimation for 10 min, a filter paper scented with 271 μmol of a thiazoline-related compound (2-methyl-2-thiazoline; 2MT) or an odor molecule that induces learned fear (anisole) was presented in the test cage, and changes in the body surface temperature on the back were analyzed using a thermography camera (NEC Avio). The value of the body surface temperature change was calculated as the difference between the mean body surface temperature for 10min when water was presented and the mean body surface temperature for 20 min when each odor molecule was presented, and the change in the body surface temperature without odor was set to 0. […]\nAn influence of various thiazoline-related compounds on the body surface temperature was analyzed by a method similar to that in Example 1. As a control, an influence of an odor molecule that induces learned fear was also analyzed. […]"}, "[2]": {"system": "C57/BL6N male mice", "assay": "Oxygen consumption on odor presentation", "type": "in vivo, mouse", "conditions": "filter paper scented with 100 μl (104 mmol) odor, versus saline", "description": "(§1) An influence of a thiazoline-related compound on the oxygen consumption was analyzed. The oxygen consumption was analyzed using an energy metabolism measurement device for small animals (ARCO-2000; ARCO SYSTEM). About 3-month-old C57/BL6N male mice were each placed in a measuring chamber and, after acclimation for about 2 hr, a thiazoline-related compound (2MT) was presented. The odors were presented by placing filter papers scented with 100 μl (104 mmol) of odor molecules in the measuring chamber. As a control, an experiment in which a filter paper dropped with saline was presented to the mice was also performed. The oxygen consumption was measured every one min. Mean oxygen consumption was calculated as the mean of 10 min before presenting odor and 20 min after presenting odor."}, "[3]": {"system": "Skin ischemia-reperfusion injury model mouse", "assay": "Skin ischemia-reperfusion injury (pressure ulcer) model, wound area", "type": "in vivo", "conditions": "odor 100 μl (104 mmol) 30 min before and during 12 hr of pinching the skin between magnets, versus no odor", "description": "Skin ischemia-reperfusion injury model mouse was generated as follows according to the method of Uchiyama et al. (Uchiyama et al., Sci Rep 5:9072, 2015). The back hair of C57/BL6N male mice (about 3-month-old) was shaved in the same manner as in Example 1, 2-3 days before the test. On the day of the test, the mice were each placed in a highly sealed cage, and a filter paper scented with 100 μl (104 mmol) of the thiazoline-related compound (2MT) was placed in the breeding cage, and the odor was presented for 30 min. As a control, a filter paper dropped with water was presented for 30 min (no odor). After 30 min, the mouse was taken out from the cage, the dorsal skin was pinched between two circular magnets and the mouse was returned to the highly sealed cage. Furthermore, a filter paper scented with 100 μl (104 mmol) of 2 MT or water was placed in the highly sealed cage, and the mouse was left for 12 hr. […] The condition of the skin on the back, which was pinched between magnets, was recorded by taking photographs every day. Based on the obtained images, the wound area was quantified with image analysis software (Photoshop, Adobe). Furthermore, changes in the core body temperature when the odor was presented under the same conditions as in this Example were measured by the same experimental method as in Example 2."}, "[4]": {"system": "High Mobility Group Box 1 (HMGB1)", "assay": "Blood HMGB1 in LPS sepsis model (ELISA)", "type": "in vivo, mouse", "conditions": "about 80 mg/kg i.p., 16 hr, versus saline", "description": "Lipopolysaccharide (LPS) (0.6 mg/kg) was intraperitoneally administered to male Balb/c mice (about 2-3 months old) to generate a sepsis model. Immediately after the LPS administration, 200 μl (about 80 mg/kg) of a solution prepared by diluting various heterocyclic compounds and isothiocyanate compounds 100 times with saline was intraperitoneally administered. Blood samples were collected 60 min after LPS and compound administration, EDTA plasma was prepared, and the blood level of inflammatory cytokine TNF-a was measured by the ELISA method.\nA sepsis model mouse was prepared by the same method as in Example 18. Immediately after the LPS administration, 200 μl (about 80 mg/kg) of a thiazoline-related compound (2MT) solution prepared by diluting 100 times with saline was intraperitoneally administered. Blood samples were collected 16 hr after administration of LPS and thiazoline-related compound (2MT), EDTA plasma was prepared, and the blood level of inflammatory mediator High Mobility Group Box 1 (HMGB1) was measured by the ELISA method."}, "[5]": {"system": "cerebral ischemia-reperfusion injury model mouse", "assay": "Cerebral ischemia-reperfusion injury, MAP2-unstained area", "type": "in vivo", "conditions": "about 80 mg/kg i.p. at the reperfusion, two days after reperfusion, versus saline", "description": "The bilateral common carotid arteries of about 3-month-old C57/BL6 mouse were ligated by clips to induce cerebral ischemia injury, and the blood was reperfused by removing the clips 30 min later. A thiazoline-related compound (2MT) solution (200 μl, about 80 mg/kg), or saline, as a control, was intraperitoneally administered at the reperfusion. Two days after the reperfusion, the brain tissue of the mouse was removed, brain sections were prepared, and the injured region was analyzed by antibody staining with Microtubule-associated protein 2 (MAP2)."}, "[6]": {"system": "Trpa1 knockout mice and littermate hetero mice", "assay": "Oxygen consumption on odor presentation, Trpa1 knockout and hetero mice", "type": "in vivo, mouse", "conditions": "two filter papers scented with 271 μmol", "description": "as §1\nThe oxygen consumption was measured using an energy metabolism measurement device for small animals as in Example 8.About 3-month to 6-month-old Trpa1 knockout mice and littermate hetero mice were each placed in a measuring chamber of the energy metabolism measurement device for small animals and, after acclimation for about 2 hr, a thiazoline-related compound (2MT) was presented. The odor was presented by placing two filter papers scented with 271 μmol of thiazoline-related compound (2MT) in the measuring chamber."}, "[7]": {"system": "mice", "assay": "Oxygen consumption after intraperitoneal injection", "type": "in vivo, mouse", "conditions": "versus saline", "description": "as §1\nChanges in the oxygen consumption induced by intraperitoneal injection of heterocyclic compounds (2MT and Thiomorpholine (TMO) were measured by a method similar to that in Example 8."}},
  "data": [
    {"compound": "CC1=NCCS1", "note": "[2MT, 2-methyl-2-thiazoline]", "values": [
      {"measurement": "changes in the body surface temperature", "setting": "[1]", "value": "clear decrease in the body surface temperature"},
      {"measurement": "oxygen consumption per body weight", "setting": "[2]", "value": "decreased remarkably"},
      {"measurement": "formation of pressure ulcer (wound area)", "setting": "[3]", "value": "formation of pressure ulcer significantly decreased"},
      {"measurement": "blood concentration of HMGB1", "setting": "[4]", "value": "decreased the blood concentration of inflammatory mediator HMGB1"},
      {"measurement": "area of the injured region of the brain (not stained with MAP2)", "setting": "[5]", "value": "reduce cerebral ischemia-reperfusion injury"},
      {"measurement": "oxygen consumption per body weight", "setting": "[6]; Trpa1 knockout mice (Trpa1−/−)", "value": "the oxygen consumption did not decrease"},
      {"measurement": "oxygen consumption per body weight", "setting": "[6]; control mice (Trpa1+/−)", "value": "the oxygen consumption was decreased"},
      {"measurement": "oxygen consumption", "setting": "[7]", "value": "suppress the oxygen consumption"}
    ]}
  ]
}
